#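 Results reflect a 48-hour exposure of cells in 96-well plates to compound at five concentrations. Abbreviation: GI50, concentration required for 50% inhibition of growth.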 Calls of active or inactive are those of the source. Cut-off read from the data, not from the text of the source: active = GI50 up to about 1.1 µM and inactive = higher.
# Columns and labels:
# Assay in all cases: inhibition of tumour cell growth, NCI panel, 48 h
# [1] = system: NCI-H522
# [2] = system: SW-620
# [3] = system: A549
# [4] = system: COLO 205
# [5] = system: HCT-116
# [6] = system: UACC-62
# [7] = system: UO-31
# [8] = system: SF-295
# [9] = system: OVCAR-8
# [10] = system: EKVX
# [11] = system: HOP-62
# [12] = system: SK-MEL-5
# [13] = system: HT-29
# [14] = system: UACC-257
# [15] = system: RPMI-8226
# [16] = system: OVCAR-3
# [17] = system: OVCAR-5
# [18] = system: Malme-3M
# [19] = system: SNB-75
# [20] = system: SF-539
Compound,GI50 [1],GI50 [2],GI50 [3],GI50 [4],GI50 [5],GI50 [6],GI50 [7],GI50 [8],GI50 [9],GI50 [10],GI50 [11],GI50 [12],GI50 [13],GI50 [14],GI50 [15],GI50 [16],GI50 [17],GI50 [18],GI50 [19],GI50 [20]
CC(=O)NC(CCCCNC(=O)OC(C)(C)C)C(=O)O (configuration not stated),> 100 µM (inactive),> 100 µM (inactive),> 100 µM (inactive),> 100 µM (inactive),> 100 µM (inactive),> 100 µM (inactive),> 100 µM (inactive),> 100 µM (inactive),> 100 µM (inactive),> 100 µM (inactive),> 100 µM (inactive),> 100 µM (inactive),> 100 µM (inactive),> 100 µM (inactive),> 100 µM (inactive),> 100 µM (inactive),38.1 µM (inactive),> 100 µM (inactive),–,–
Clc1ccc(C2SCc3nc4ccccc4n32)cc1 (configuration not stated),14.4 µM (inactive),33.3 µM (inactive),–,16.5 µM (inactive),–,13.8 µM (inactive),13.5 µM (inactive),26.2 µM (inactive),29.1 µM (inactive),34.5 µM (inactive),–,10.3 µM (inactive),19.5 µM (inactive),–,14.9 µM (inactive),24.8 µM (inactive),–,11.1 µM (inactive),4.88 µM (inactive),22.6 µM (inactive)
CSC1=C(SC)C(=O)c2cn(C)c(=O)cc2C1=O,0.853 µM (active),1.74 µM (inactive),16.1 µM (inactive),1.49 µM (inactive),1.81 µM (inactive),2.7 µM (inactive),1.75 µM (inactive),13 µM (inactive),> 44.1 µM (inactive),18.3 µM (inactive),9.38 µM (inactive),1.75 µM (inactive),6.14 µM (inactive),2.34 µM (inactive),2.4 µM (inactive),1.91 µM (inactive),20.2 µM (inactive),2.24 µM (inactive),8.67 µM (inactive),9.82 µM (inactive)
Cc1cn(C2CC(O)C(Cn3cc(Cn4nc(Br)c(=O)[nH]c4=O)nn3)O2)c(=O)[nH]c1=O (configuration not stated),–,> 100 µM (inactive),> 100 µM (inactive),> 100 µM (inactive),> 100 µM (inactive),> 100 µM (inactive),> 100 µM (inactive),> 100 µM (inactive),> 100 µM (inactive),> 100 µM (inactive),> 100 µM (inactive),> 100 µM (inactive),–,> 100 µM (inactive),> 100 µM (inactive),> 100 µM (inactive),> 100 µM (inactive),78 µM (inactive),> 100 µM (inactive),> 100 µM (inactive)
CSCCC(NOC(=O)Cc1ccccc1)P(=O)(O)c1ccccc1 (configuration not stated),> 100 µM (inactive),> 100 µM (inactive),> 100 µM (inactive),> 100 µM (inactive),> 100 µM (inactive),–,> 100 µM (inactive),> 100 µM (inactive),> 100 µM (inactive),–,> 100 µM (inactive),> 100 µM (inactive),> 100 µM (inactive),> 100 µM (inactive),> 100 µM (inactive),> 100 µM (inactive),> 100 µM (inactive),–,> 100 µM (inactive),–
COc1ccc(NC(=S)NNC(=O)c2nsc3ccccc23)cc1,–,48.4 µM (inactive),37.2 µM (inactive),43.9 µM (inactive),28.4 µM (inactive),27.7 µM (inactive),25.2 µM (inactive),–,43.7 µM (inactive),28.3 µM (inactive),43.5 µM (inactive),30.8 µM (inactive),45.9 µM (inactive),36 µM (inactive),22.3 µM (inactive),22.2 µM (inactive),> 100 µM (inactive),–,24.9 µM (inactive),28.3 µM (inactive)
CC1=CC(O)C(O)C2(C)C1CC1OC(=O)C(O)C3C(C)C(O)C4(O)OCC13C42 (configuration not stated),50.5 µM (inactive),24.7 µM (inactive),27.9 µM (inactive),20.1 µM (inactive),99.5 µM (inactive),84.3 µM (inactive),110 µM (inactive),28.8 µM (inactive),32.1 µM (inactive),30.9 µM (inactive),65.3 µM (inactive),29.4 µM (inactive),38.1 µM (inactive),103 µM (inactive),16.9 µM (inactive),10.2 µM (inactive),161 µM (inactive),97.7 µM (inactive),6.18 µM (inactive),39.2 µM (inactive)
COC1CCC(CO)OO1 (configuration not stated),12.9 µM (inactive),–,–,53.6 µM (inactive),30.3 µM (inactive),70.3 µM (inactive),35.1 µM (inactive),14.1 µM (inactive),–,–,9.64 µM (inactive),–,28.9 µM (inactive),45.2 µM (inactive),19.1 µM (inactive),18 µM (inactive),25.9 µM (inactive),59.7 µM (inactive),43.9 µM (inactive),27.7 µM (inactive)
C[N+](C)(CCO)CCN1c2ccccc2Sc2ccccc21,> 10 µM (inactive),> 10 µM (inactive),> 10 µM (inactive),> 10 µM (inactive),> 10 µM (inactive),> 10 µM (inactive),3.52 µM (inactive),> 10 µM (inactive),> 10 µM (inactive),> 10 µM (inactive),> 10 µM (inactive),> 10 µM (inactive),> 10 µM (inactive),–,> 10 µM (inactive),> 10 µM (inactive),> 10 µM (inactive),> 10 µM (inactive),> 10 µM (inactive),> 10 µM (inactive)
O=C1OC2CC=CC1C2 (configuration not stated),> 100 µM (inactive),> 100 µM (inactive),> 100 µM (inactive),> 100 µM (inactive),> 100 µM (inactive),> 100 µM (inactive),> 100 µM (inactive),> 100 µM (inactive),> 100 µM (inactive),> 100 µM (inactive),> 100 µM (inactive),> 100 µM (inactive),> 100 µM (inactive),> 100 µM (inactive),> 100 µM (inactive),> 100 µM (inactive),> 100 µM (inactive),> 100 µM (inactive),> 100 µM (inactive),> 100 µM (inactive)
CCOC(=O)CN1CCS/C1=N/C#N,> 100 µM (inactive),> 100 µM (inactive),> 100 µM (inactive),> 100 µM (inactive),> 100 µM (inactive),> 100 µM (inactive),> 100 µM (inactive),–,> 100 µM (inactive),> 100 µM (inactive),> 100 µM (inactive),> 100 µM (inactive),> 42.4 µM (inactive),> 100 µM (inactive),> 100 µM (inactive),> 100 µM (inactive),4.22 µM (inactive),> 100 µM (inactive),> 100 µM (inactive),> 100 µM (inactive)
CC(C)[C@](O)(C(=O)OCC1CC[N+]2([O-])CC[C@@H](O)C12)[C@H](C)O (some centres not stated),> 375 µM (inactive),> 375 µM (inactive),> 375 µM (inactive),> 375 µM (inactive),> 255 µM (inactive),> 375 µM (inactive),> 375 µM (inactive),> 375 µM (inactive),> 375 µM (inactive),> 375 µM (inactive),> 375 µM (inactive),> 334 µM (inactive),> 375 µM (inactive),> 375 µM (inactive),> 375 µM (inactive),> 375 µM (inactive),> 375 µM (inactive),> 255 µM (inactive),126 µM (inactive),> 375 µM (inactive)
CC[C@]12C=CCN3CC[C@@]4(c5ccc(OC)cc5N(C)[C@H]4[C@@](O)(C(=O)OC)[C@@H]1OC(C)=O)[C@@H]32,97.9 µM (inactive),> 200 µM (inactive),162 µM (inactive),> 185 µM (inactive),172 µM (inactive),143 µM (inactive),59 µM (inactive),152 µM (inactive),19.5 µM (inactive),> 151 µM (inactive),171 µM (inactive),99.5 µM (inactive),> 200 µM (inactive),172 µM (inactive),93.8 µM (inactive),102 µM (inactive),> 200 µM (inactive),> 200 µM (inactive),51.3 µM (inactive),> 200 µM (inactive)
Nc1ncnc2c1nnn2C1OC(CO)C(O)C1O (configuration not stated),1.87 µM (inactive),2.19 µM (inactive),3.65 µM (inactive),3.05 µM (inactive),1.9 µM (inactive),5.7 µM (inactive),2.07 µM (inactive),30.1 µM (inactive),2.87 µM (inactive),7.66 µM (inactive),6.05 µM (inactive),4 µM (inactive),6.78 µM (inactive),8.93 µM (inactive),1.88 µM (inactive),5.5 µM (inactive),4.37 µM (inactive),3.58 µM (inactive),9.02 µM (inactive),9.14 µM (inactive)
